Results from patent publication US7304174B2, “CaSR antagonist” (Japan Tobacco Inc., priority 2003, dated 2007).

Biological target: T1, human calcium receptor (Homo sapiens, UniProt P41180)
T1 construct: expressed in transfected cells; host or cells: cell strain derived from rat adrenal, co-transformed with luciferase cDNA
T1 sequence (P41180 20-1078): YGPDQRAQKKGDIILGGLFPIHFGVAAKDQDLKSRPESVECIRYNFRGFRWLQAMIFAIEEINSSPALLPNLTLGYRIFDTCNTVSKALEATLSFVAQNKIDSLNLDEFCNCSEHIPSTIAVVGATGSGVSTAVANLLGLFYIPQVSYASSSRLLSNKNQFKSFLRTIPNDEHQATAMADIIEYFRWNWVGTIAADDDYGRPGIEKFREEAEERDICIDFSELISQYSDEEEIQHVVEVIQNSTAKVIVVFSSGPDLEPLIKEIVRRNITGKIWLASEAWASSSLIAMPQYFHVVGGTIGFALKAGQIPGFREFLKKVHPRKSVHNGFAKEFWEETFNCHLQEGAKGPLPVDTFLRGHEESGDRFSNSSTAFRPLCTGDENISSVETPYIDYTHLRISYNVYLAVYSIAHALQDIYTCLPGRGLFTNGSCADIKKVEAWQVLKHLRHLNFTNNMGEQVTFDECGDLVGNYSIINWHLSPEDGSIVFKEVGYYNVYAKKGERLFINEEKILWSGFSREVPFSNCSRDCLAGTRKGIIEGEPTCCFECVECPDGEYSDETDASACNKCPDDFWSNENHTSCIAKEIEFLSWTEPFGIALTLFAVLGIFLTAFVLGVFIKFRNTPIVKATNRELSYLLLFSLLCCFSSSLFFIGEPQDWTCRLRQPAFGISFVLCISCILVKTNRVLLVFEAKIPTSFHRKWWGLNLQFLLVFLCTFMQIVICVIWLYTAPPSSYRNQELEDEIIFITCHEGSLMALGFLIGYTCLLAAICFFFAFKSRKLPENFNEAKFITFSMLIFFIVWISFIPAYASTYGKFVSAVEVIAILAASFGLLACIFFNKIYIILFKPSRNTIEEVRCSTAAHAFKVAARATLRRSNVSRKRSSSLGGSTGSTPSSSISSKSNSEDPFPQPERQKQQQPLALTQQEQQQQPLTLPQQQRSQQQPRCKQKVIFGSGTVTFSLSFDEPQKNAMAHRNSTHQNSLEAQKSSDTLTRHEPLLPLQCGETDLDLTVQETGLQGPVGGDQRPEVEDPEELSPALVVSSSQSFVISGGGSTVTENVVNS
Assay: Evaluation of antagonistic action on calcium receptor using reporter gene (luciferase)
Format: cell-based
Conditions: transformed rat adrenal derived cells, 5 mM calcium chloride, culture 4 hrs, luciferase activity; read-out: Reporter gene assay (IC50, concentration showing 50% inhibitory rate)
Experimental: Evaluation of Antagonistic Action on Calcium Receptor Using Reporter Gene
Luciferase cDNA and human calcium receptor cDNA were introduced into a cell strain derived from rat adrenal to transform the cells, and the transformed cells were cultured in a medium (80 μl, F12 medium containing 0.5% dialyzed horse serum and 0.25% dialyzed bovine fetal serum). A dimethyl sulfoxide solution containing a test compound at 0.1-10000 μM was diluted 100-fold with the medium and added to the test compound group at 10 μl per well (dimethyl sulfoxide final concentration 0.1%). In the same manner as in test compound group, dimethyl sulfoxide 100-fold diluted with medium was added to a control group and a blank group. Then, 50 mM calcium chloride-containing medium was added to every well except the blank group at 10 μl per well (final concentration 5 mM). A medium containing 50 mM calcium chloride was added to the control group at 10 μl per well, such that the final calcium concentration of the medium became 5 mM. A medium alone was added to the blank group. After culture for 4 hrs, luciferase substrate was added and the luciferase activity was measured with a photoluminometer. The inhibitory rate (%) was calculated from the obtained measured values according to the following formula.
Based on the results, the concentration (IC50) showing 50% inhibitory rate was determined. The results are shown in the aforementioned Tables 1 to 60.

SMILES	IC50 [nM]
CCC(C)c1cc(-c2ccccc2[C@@H](C)OC[C@H](O)CNC(C)(C)Cc2ccc(C)c(F)c2)ccc1C(=O)O (stereo partly drawn) [Example 1-53, 2′-[1-[(2R)-3-[[1-(3-fluoro-4-methylphenyl)-2-methylpropan-2-yl]amino]-2-hydroxypropoxy]ethyl]-3-(1-methylpropyl)biphenyl-4-carboxylic acid]	15
Cc1cc(-c2ccccc2[C@@H](C)OC[C@H](O)CNC(C)(C)Cc2ccc(C)c(F)c2F)ccc1C(=O)O [Example 1-5, 2′-[1-[(2R)-3-[[1-(2,3-difluoro-4-methylphenyl)-2-methylpropan-2-yl]amino]-2-hydroxypropoxy]ethyl]-3-methylbiphenyl-4-carboxylic acid]	3
COc1cc(-c2ccccc2[C@@H](C)OC[C@H](O)CNC(C)(C)Cc2ccc(Cl)cc2F)ccc1C(=O)O [Example 1-81, 2′-[1-[(2R)-3-[[1-(4-chloro-2-fluorophenyl)-2-methylpropan-2-yl]amino]-2-hydroxypropoxy]ethyl]-3-methoxybiphenyl-4-carboxylic acid]	26
Cc1cc(-c2ccccc2[C@@H](C)OC[C@H](O)CNC(C)(C)Cc2cc(F)ccc2F)ccc1C(=O)O [Example 1-89, 2′-[1-[(2R)-3-[[1-(2,5-difluorophenyl)-2-methylpropan-2-yl]amino]-2-hydroxypropoxy]ethyl]-3-methylbiphenyl-4-carboxylic acid]	271
Cc1cc(-c2ccccc2[C@@H](C)OC[C@H](O)CNC(C)(C)Cc2ccc(Cl)cc2F)ccc1C(=O)O [Example 1-109]	15
Cc1ccc(CC(C)(C)NC[C@@H](O)CO[C@@H](c2ccccc2-c2ccc(C(=O)O)c(C)c2)C2CC2)cc1F [Example 1-14, 2′-[(cyclopropyl)[(2R)-3-[[1-(3-fluoro-4-methylphenyl)-2-methylpropan-2-yl]amino]-2-hydroxypropoxy]methyl]-3-methylbiphenyl-4-carboxylic acid]	6
Cc1cc(C(=O)O)ccc1-c1ccccc1[C@@H](C)OC[C@H](O)CNC(C)(C)Cc1ccc(Cl)c(F)c1 [Example 1-83, 2′-[1-[(2R)-3-[[1-(4-chloro-3-fluorophenyl)-2-methylpropan-2-yl]amino]-2-hydroxypropoxy]ethyl]-2-methylbiphenyl-4-carboxylic acid]	16
Cc1cc(-c2ccccc2[C@@H](C)OC[C@H](O)CNC(C)(C)Cc2cc(Cl)cc(Cl)c2)ccc1C(=O)O [Example 1-87, 2′-[1-[(2R)-3-[[1-(3,5-dichlorophenyl)-2-methylpropan-2-yl]amino]-2-hydroxypropoxy]ethyl]-3-methylbiphenyl-4-carboxylic acid]	14
Cc1cc(-c2ccccc2[C@@H](C)OC[C@H](O)CNC(C)(C)Cc2cc(F)c(Cl)cc2F)ccc1C(=O)O [Example 1-25, 2′-[1-[(2R)-3-[[1-(4-chloro-2,5-difluorophenyl)-2-methylpropan-2-yl]amino]-2-hydroxypropoxy]ethyl]-3-methylbiphenyl-4-carboxylic acid]	19
Cc1ccc(CC(C)(C)NC[C@@H](O)CO[C@H](C)c2ccccc2-c2ccc(C(=O)O)c(C)c2C)cc1F [Example 1-42, 2′-[1-[(2R)-3-[[1-(3-fluoro-4-methylphenyl)-2-methylpropan-2-yl]amino]-2-hydroxypropoxy]ethyl]-2,3-dimethylbiphenyl-4-carboxylic acid]	24
Cc1ccc(CC(C)(C)NC[C@@H](O)CO[C@H](C)c2ccccc2-c2ccc(C(=O)O)c(C)c2)cc1F [Example 1-15, 2′-[1-[(2R)-3-[[1-(3-fluoro-4-methylphenyl)-2-methylpropan-2-yl]amino]-2-hydroxypropoxy]ethyl]-3-methylbiphenyl-4-carboxylic acid]	12
Cc1ccc(CC(C)(C)NC[C@@H](O)CO[C@H](C)c2ccccc2-c2ccc(C(=O)O)c(N3CCOCC3)c2)cc1F [Example 1-102, 2′-[1-[(2R)-3-[[1-(3-fluoro-4-methylphenyl)-2-methylpropan-2-yl]amino]-2-hydroxypropoxy]ethyl]-3-morpholinobiphenyl-4-carboxylic acid]	14

Other lines, results leading:

IC50 [nM]	SMILES
17	CC(C)(Cc1ccc2ccccc2c1)NC[C@@H](O)COC(c1ccccc1-c1ccc(C(=O)O)c(F)c1)C1CC1 (stereo partly drawn) [Example 1-64, 2′-[(cyclopropyl)[(2R)-3-[[1-(naphthalen-2-yl)-2-methylpropan-2-yl]amino]-2-hydroxypropoxy]methyl]-3-fluorobiphenyl-4-carboxylic acid]
14	CC(OC[C@H](O)CNC(C)(C)Cc1ccc2ccccc2c1)c1ccccc1Sc1ccc(C(=O)O)cc1 (stereo partly drawn) [Example 2-16, 4-[2-[1-[(2R)-3-[[1-(naphthalen-2-yl)-2-methylpropan-2-yl]amino]-2-hydroxypropoxy]ethyl]phenylthio]benzoic acid]
236	CC(OC[C@H](O)CNC(C)(C)Cc1ccc2ccccc2c1)c1ccccc1S(=O)(=O)c1ccc(C(=O)O)cc1 (stereo partly drawn) [Example 2-18, 4-[2-[1-[(2R)-3-[[1-(naphthalen-2-yl)-2-methylpropan-2-yl]amino]-2-hydroxypropoxy]ethyl]phenylsulfonyl]benzoic acid]
8	C[C@@H](OC[C@H](O)CNC(C)(C)Cc1ccc2ccccc2c1)c1ccccc1-c1ccc(C(=O)O)cc1F [Example 1-62, 2-fluoro-2′-[1-[(2R)-3-[[1-(naphthalen-2-yl)-2-methylpropan-2-yl]amino]-2-hydroxypropoxy]ethyl]biphenyl-4-carboxylic acid]
20	CC(OC[C@H](O)CNC(C)(C)Cc1ccc2ccccc2c1)c1ccccc1OCc1ccccc1C(=O)O (stereo partly drawn) [Example 2-20, 2-[[2-[1-[(2R)-3-[[1-(naphthalen-2-yl)-2-methylpropan-2-yl]amino]-2-hydroxypropoxy]ethyl]phenoxy]methyl]benzoic acid]
29	CC(OC[C@H](O)CNC(C)(C)Cc1ccc2ccccc2c1)c1ccccc1NCc1ccc(C(=O)O)cc1 (stereo partly drawn) [Example 2-19, 4-[[2-[1-[(2R)-3-[[1-(naphthalen-2-yl)-2-methylpropan-2-yl]amino]-2-hydroxypropoxy]ethyl]phenylamino]methyl]benzoic acid]
148	CC(OC[C@H](O)CNC(C)(C)Cc1ccc2ccccc2c1)c1ccccc1[S+]([O-])c1ccc(C(=O)O)cc1 (stereo partly drawn) [Example 2-17, 4-[2-[1-[(2R)-3-[[1-(naphthalen-2-yl)-2-methylpropan-2-yl]amino]-2-hydroxypropoxy]ethyl]phenylsulfinyl]benzoic acid]
7	CC(OC[C@H](O)CNC(C)(C)Cc1ccc2ccccc2c1)c1ccccc1-c1ccc(C(=O)O)c(C(F)(F)F)c1 (stereo partly drawn) [Example 1-28, 2′-[1-[(2R)-3-[[1-(naphthalen-2-yl)-2-methylpropan-2-yl]amino]-2-hydroxypropoxy]ethyl]-3-(trifluoromethyl)biphenyl-4-carboxylic acid]
16	CC(C)(Cc1ccc2ccccc2c1)NC[C@@H](O)COC(c1ccccc1-c1ccc(C(=O)O)cc1F)C1CC1 (stereo partly drawn) [Example 1-65, 2′-[(cyclopropyl)[(2R)-3-[[1-(naphthalen-2-yl)-2-methylpropan-2-yl]amino]-2-hydroxypropoxy]methyl]-2-fluorobiphenyl-4-carboxylic acid]
2	C[C@@H](OC[C@H](O)CNC(C)(C)Cc1ccc2ccccc2c1)c1ccccc1-c1ccc(C(=O)O)c([N+](=O)[O-])c1 [Example 1-69, 2′-[1-[(2R)-3-[[1-(naphthalen-2-yl)-2-methylpropan-2-yl]amino]-2-hydroxypropoxy]ethyl]-3-nitrobiphenyl-4-carboxylic acid]
